Entries after “also recorded” stand apart in the source; their conditions may differ.
Tests used:
RARα [1] = target: T1, RARα (Homo sapiens (Human), UniProt P10276); experiment: Binding affinity from Yoshimura et al., 2000, RARα; details: ratio of relative IC50 (binding), Table 5
RARα [2] = target: T1, RARα; experiment: Subtype-specific transactivation from Yoshimura et al., 2000, RARα; assay type: cell-based; details: ratio of relative EC30 (transactivation), Table 6
RARγ [3] = target: T2, RARγ (Homo sapiens (Human), UniProt P13631); experiment: Subtype-specific transactivation from Yoshimura et al., 2000, RARγ; assay type: cell-based; details: ratio of relative EC30 (transactivation), Table 6
T2 sequence (P13631 whole entry, species assumed): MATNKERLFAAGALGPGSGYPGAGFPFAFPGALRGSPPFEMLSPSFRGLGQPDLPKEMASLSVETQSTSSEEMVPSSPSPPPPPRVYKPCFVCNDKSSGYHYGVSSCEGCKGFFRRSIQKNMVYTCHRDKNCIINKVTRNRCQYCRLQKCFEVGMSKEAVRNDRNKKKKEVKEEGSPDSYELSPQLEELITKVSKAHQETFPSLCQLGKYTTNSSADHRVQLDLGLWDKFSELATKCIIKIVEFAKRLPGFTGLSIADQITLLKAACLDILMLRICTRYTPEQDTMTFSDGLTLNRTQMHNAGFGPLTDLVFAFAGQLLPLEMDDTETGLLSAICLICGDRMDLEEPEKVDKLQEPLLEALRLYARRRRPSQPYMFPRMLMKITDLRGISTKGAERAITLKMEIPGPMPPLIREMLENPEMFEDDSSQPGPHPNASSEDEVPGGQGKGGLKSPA

RARα [4] = target: T1, RARα; details: transactivation, relative to atRA = 1; cited from earlier work
RARβ [5] = target: RARβ (Homo sapiens (Human), UniProt P10826); details: transactivation, relative to atRA = 1; cited from earlier work
Sequence of RARβ (Homo sapiens (Human), UniProt P10826) (P10826 whole entry, species assumed): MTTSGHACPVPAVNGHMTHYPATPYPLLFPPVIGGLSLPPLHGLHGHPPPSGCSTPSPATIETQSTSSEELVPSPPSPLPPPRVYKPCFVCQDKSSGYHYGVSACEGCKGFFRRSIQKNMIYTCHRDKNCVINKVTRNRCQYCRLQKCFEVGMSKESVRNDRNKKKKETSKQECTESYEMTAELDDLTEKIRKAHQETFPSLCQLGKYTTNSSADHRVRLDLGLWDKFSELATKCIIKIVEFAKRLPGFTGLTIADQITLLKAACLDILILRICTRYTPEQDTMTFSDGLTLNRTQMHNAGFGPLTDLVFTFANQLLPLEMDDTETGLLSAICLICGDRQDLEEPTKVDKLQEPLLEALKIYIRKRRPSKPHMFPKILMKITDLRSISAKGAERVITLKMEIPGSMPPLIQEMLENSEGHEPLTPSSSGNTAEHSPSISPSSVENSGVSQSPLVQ

RARγ [6] = target: T2, RARγ; details: transactivation, relative to atRA = 1; cited from earlier work
RARβ [7] = target: RARβ (Mus musculus (Mouse), UniProt P22605); experiment: Transactivation assay for RARβ (gal4-RAR fusion, pFR-luc reporter, COS-7 cells), Table 2; assay type: cell-based; details: COS-7 reporter, mean of three or more determinations, species not stated (method: mouse or human)
Sequence of RARβ (Mus musculus (Mouse), UniProt P22605) (P22605 210-444): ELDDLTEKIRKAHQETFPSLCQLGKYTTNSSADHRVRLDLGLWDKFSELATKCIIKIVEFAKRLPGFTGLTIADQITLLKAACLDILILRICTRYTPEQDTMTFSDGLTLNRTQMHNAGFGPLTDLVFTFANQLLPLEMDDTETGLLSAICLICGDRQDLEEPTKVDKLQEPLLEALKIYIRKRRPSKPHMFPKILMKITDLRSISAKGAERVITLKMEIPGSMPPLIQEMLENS
Description: (§1) Transcriptional transactivation assays were performed with gal4 fusion receptor constructs, created using each of the RAR ligand binding domains of either mouse or human, co-transfected with the pFR-luc (Stratagene) reporter construct in COS-7 cells.
(§2) Briefly, on day 1, 96 well plates were seeded with 8000 cells per well then left to recover overnight. On day 2, the cells were co-transfected with 100 ng of reporter plasmid and 10 ng of the appropriate receptor plasmid per well using lipofectamine (Invitrogen). On day 3, the lipofectamine containing media was replaced by a DMEM without phenol red, followed by the addition of test compound dissolved in 1 μL of DMSO to each well's 100 μL total volume. Finally, on day 4, the cells were lysed and their luciferase substrate was provided by the BrightGlo™ reagent (Promega), the plates were then read on the MicroBeta TriLux™ (Perkin Elmer).
(§3) Data for test compounds are quoted as EC50 values. Where replicate data has been generated, the data are quoted as the mean EC50 from the separate experiments.
(§4) EC50's values are reported as mean values of three or more determinations.

RARα [8] = target: RARα (Mus musculus (Mouse), UniProt P11416); experiment: Transactivation assay for RARα (gal4-RAR fusion, pFR-luc reporter, COS-7 cells), Table 2; assay type: cell-based; details: for EC50: Table 2, COS-7 reporter, mean of three or more determinations, inactive = no agonist action at highest concentration tested; for RARα/RARβ ratio: fold-selectivity for RARβ over RARα, >1 = selective for RARβ
Sequence of RARα (Mus musculus (Mouse), UniProt P11416) (P11416 183-417): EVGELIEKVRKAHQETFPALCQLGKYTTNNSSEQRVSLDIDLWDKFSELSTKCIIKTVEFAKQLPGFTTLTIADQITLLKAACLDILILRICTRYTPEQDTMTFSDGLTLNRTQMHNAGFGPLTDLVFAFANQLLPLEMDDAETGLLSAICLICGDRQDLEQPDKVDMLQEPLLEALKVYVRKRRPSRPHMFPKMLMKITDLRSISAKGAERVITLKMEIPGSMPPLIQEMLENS
Description: as §1, §2, §3, §4

RARγ [9] = target: RARγ (Mus musculus (Mouse), UniProt P18911); experiment: Transactivation assay for RARγ (gal4-RAR fusion, pFR-luc reporter, COS-7 cells), Table 2; assay type: cell-based; details: for EC50: Table 2, COS-7 reporter, mean of three or more determinations, inactive = no agonist action at highest concentration tested; for RARγ/RARβ ratio: fold-selectivity for RARβ over RARγ, >1 = selective for RARβ
Sequence of RARγ (Mus musculus (Mouse), UniProt P18911) (P18911 185-419): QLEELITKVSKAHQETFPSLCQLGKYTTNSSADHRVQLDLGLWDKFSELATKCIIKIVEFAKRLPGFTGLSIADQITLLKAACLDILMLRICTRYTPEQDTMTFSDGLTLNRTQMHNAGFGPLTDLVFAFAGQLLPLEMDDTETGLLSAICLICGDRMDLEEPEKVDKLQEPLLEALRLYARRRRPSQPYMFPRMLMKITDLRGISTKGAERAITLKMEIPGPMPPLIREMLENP
Description: as §1, §2, §3, §4

cerebellar neurons = experiment: Neurite outgrowth assay, cerebellar neurons in the presence of myelin/MAG; assay type: cell-based, rat; details: cerebellar neurons, in the presence of MAG/myelin, with CD2019
Description: Cerebellar neurons isolated from post-natal day 3 rat pups were cultured over monolayers of parental 3T3 cells in control media, or media supplemented with a recombinant MAG-Fc chimera (R&D Systems) used at a final concentration of 20 μg/mL MAG-Fc. The monolayers were established for 24 hours prior to addition of the neurons and the co-cultures were maintained for approximately 21 hours. Following careful fixation with 4% paraformaldehyde, the neurons were immuno-stained with a GAP-43 antibody (from Graham Wilkin, Imperial College), dilution of 1:500, and the mean length of the longest neurite per cell was measured for approximately 120-150 neurons as previously described (see, e.g., Williams et al., 2005). DRG and cortical explants were obtained from adult rats, they were cultured in cellogen as previously described (see, e.g., Corcoran and Maden, 1999). Three explants per treatment were used. Neurite outgrowth was assessed 3 days later by immunohistochemistry with NF200 (Sigma, dilution of 1:200). The average lengths of the neurites were measured using image pro plus software. Media consisted of DMEM-F12 (Invitrogen) containing N2 (Invitrogen) supplemented with glucose (33 mM) and glutamine (2 mM).

T1 sequence (P10276 whole entry, species assumed): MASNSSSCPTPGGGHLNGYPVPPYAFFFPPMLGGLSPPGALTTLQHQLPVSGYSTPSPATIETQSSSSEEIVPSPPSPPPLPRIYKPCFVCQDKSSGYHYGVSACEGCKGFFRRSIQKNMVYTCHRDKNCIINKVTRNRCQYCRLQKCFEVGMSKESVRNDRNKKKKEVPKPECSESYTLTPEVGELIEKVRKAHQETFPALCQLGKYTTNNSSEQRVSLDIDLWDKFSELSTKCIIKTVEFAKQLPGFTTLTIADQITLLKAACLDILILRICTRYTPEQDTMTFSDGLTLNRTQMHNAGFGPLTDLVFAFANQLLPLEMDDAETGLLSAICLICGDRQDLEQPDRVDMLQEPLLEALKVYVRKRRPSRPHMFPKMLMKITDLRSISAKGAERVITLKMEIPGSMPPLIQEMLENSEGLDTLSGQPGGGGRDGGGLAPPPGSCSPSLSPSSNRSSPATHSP

Work on Cc1ccc(C)c2oc(-c3ccc(-c4ccc(C(=O)O)cc4)[nH]3)cc12 [1b] yielded an RARα/RARβ ratio (RARα [1]) of 0.0029, an RARα/RARβ ratio (RARα [2]) of 0.148 and an RARγ/RARβ ratio (RARγ [3]) of 9.60. For the same compound, the “RARα relative EC30” value (RARα [4]) was 0.37 ± 0.02, the “RARβ relative EC30” value (RARβ [5]) was 25 ± 12 and the “RARγ relative EC30” value (RARγ [6]) was 240 ± 30.
In the case of O=C(O)c1ccc(-c2ccc(-c3cc4c(Cl)ccc(Cl)c4o3)[nH]2)cc1 [1c], the RARα/RARβ ratio (RARα [1]) is reported as 0.0022, the RARα/RARβ ratio (RARα [2]) is reported as 0.006 and the RARγ/RARβ ratio (RARγ [3]) is reported as 7.45. The “RARα relative EC30” value (RARα [4]) was 0.70 ± 0.15, the “RARβ relative EC30” value (RARβ [5]) was 110 ± 30 and the “RARγ relative EC30” value (RARγ [6]) was 820 ± 290.
In the case of O=C(O)c1ccc(-c2ccc(-c3cc4c(F)ccc(F)c4o3)[nH]2)cc1 [1e], the RARα/RARβ ratio (RARα [2]) is given as 0.0038, the RARγ/RARβ ratio (RARγ [3]) is given as 8.33 and the “RARα relative EC30” value (RARα [4]) is given as 0.80 ± 0.17. For the same compound, the “RARβ relative EC30” value (RARβ [5]) was 210 ± 40 and the “RARγ relative EC30” value (RARγ [6]) was 1750 ± 750.
In the case of Cc1ccc(C)c2sc(-c3ccc(-c4ccc(C(=O)O)cc4)[nH]3)cc12 [1j], the RARα/RARβ ratio (RARα [2]) is listed as 0.010, the RARγ/RARβ ratio (RARγ [3]) is listed as 6.46 and the “RARα relative EC30” value (RARα [4]) is listed as 1.3 ± 0.6. The “RARβ relative EC30” value (RARβ [5]) was 130 ± 60 and the “RARγ relative EC30” value (RARγ [6]) was 840 ± 360.
With Cc1ccc(C)c2oc(-c3nc(-c4ccc(C(=O)O)cc4)ns3)cc12 [BHBA-038, 4-(5-(4,7-Dimethylbenzofuran-2-yl)-1,2,4-thiadiazol-3-yl)benzoic acid] the EC50 (RARβ [7]) was 5.1 nM, the EC50 (RARα [8]) was 19 nM and the RARα/RARβ ratio (RARα [8]) was 3.7. It also gave an EC50 (RARγ [9]) of 6.1 nM and an RARγ/RARβ ratio (RARγ [9]) of 1.2.
For Cc1ccc(C)c2oc(-c3nc(-c4ccc(C(=O)O)cc4Cl)ns3)cc12 [BHBA-039, 3-Chloro-4-(5-(4,7-dimethylbenzofuran-2-yl)-1,2,4-thiadiazol-3-yl)benzoic acid], the EC50 (RARβ [7]) was 3.6 nM, the EC50 (RARα [8]) was 65 nM and the EC50 (RARγ [9]) was 13 nM.
Work on Cc1cc(-c2nsc(-c3cc4c(C)ccc(C)c4o3)n2)ccc1C(=O)O [BHBA-040, 4-(5-(4,7-Dimethylbenzofuran-2-yl)-1,2,4-thiadiazol-3-yl)-2-methylbenzoic acid] yielded an EC50 (RARβ [7]) of 11 nM, an EC50 (RARα [8]) of 72 nM and an EC50 (RARγ [9]) of 130 nM.
With Cc1ccc(C)c2oc(-c3nc(-c4ccc(C(=O)O)c(F)c4)ns3)cc12 [BHBA-041, 4-(5-(4,7-Dimethylbenzofuran-2-yl)-1,2,4-thiadiazol-3-yl)-2-fluorobenzoic acid] the EC50 (RARβ [7]) was 4.3 nM, the EC50 (RARα [8]) was 20 nM and the RARα/RARβ ratio (RARα [8]) was 4.6. It also gave an EC50 (RARγ [9]) of 4.7 nM and an RARγ/RARβ ratio (RARγ [9]) of 1.0.
For Cc1ccc(C)c2oc(-c3nsc(-c4ccc(C(=O)O)cc4)n3)cc12 [BHBA-042, 4-(3-(4,7-Dimethylbenzofuran-2-yl)-1,2,4-thiadiazol-5-yl)benzoic acid], the EC50 (RARβ [7]) was 3.1 nM, the EC50 (RARα [8]) was 9.4 nM and the RARα/RARβ ratio (RARα [8]) was 3. It also gave an EC50 (RARγ [9]) of 2.3 nM and an RARγ/RARβ ratio (RARγ [9]) of 0.74.
Work on Cc1cc(-c2nc(-c3cc4c(C)ccc(C)c4o3)ns2)ccc1C(=O)O [BHBA-043, 4-(3-(4,7-Dimethylbenzofuran-2-yl)-1,2,4-thiadiazol-5-yl)-2-methylbenzoic acid] yielded an EC50 (RARβ [7]) of 5.2 nM, an EC50 (RARα [8]) of 44 nM and an EC50 (RARγ [9]) of 25 nM.
In the case of Cc1ccc(C)c2oc(-c3nsc(-c4ccc(C(=O)O)c(F)c4)n3)cc12 [BHBA-044, 4-(3-(4,7-Dimethylbenzofuran-2-yl)-1,2,4-thiadiazol-5-yl)-2-fluorobenzoic acid], the EC50 (RARβ [7]) is reported as 2 nM, the EC50 (RARα [8]) is reported as 26 nM and the RARα/RARβ ratio (RARα [8]) is reported as 13. For the same compound, the EC50 (RARγ [9]) was 3.4 nM and the RARγ/RARβ ratio (RARγ [9]) was 1.7.
Cc1c(Cl)cc(C)c2oc(-c3nc(-c4ccc(C(=O)O)cc4)no3)cc12 [BHBA-045, 4-(5-(5-Chloro-4,7-dimethylbenzofuran-2-yl)-1,2,4-oxadiazol-3-yl)benzoic acid] gave an EC50 (RARβ [7]) of 4 nM, an EC50 (RARα [8]) of 91 nM and an EC50 (RARγ [9]) of 40 nM.
For CCCCCCOC(=O)[C@]1(O)C[C@@H]2O[C@@]1(C)n1c3ccccc3c3c4c(c5c6ccccc6n2c5c31)C(=O)NC4 [KT5720], the “Effect on RARβ agonist (CD2019) mediated neurite outgrowth” value (cerebellar neurons) was “little or no effect; also recorded: does not affect”.
For O=c1cc(N2CCOCC2)oc2c(-c3ccccc3)cccc12 [LY295002], the “Effect on RARβ agonist (CD2019) mediated neurite outgrowth” value (cerebellar neurons) was “neurite outgrowth was severely impeded”.

— patent US10752616B2, “Bicycloheteroaryl-heteroaryl-benzoic acid compounds as retinoic acid receptor beta (RARβ) agonists” (King's College London, priority 2014, dated 2020)
